The values that follow come from patent US12264173B2 (GILEAD SCIENCES, INC., priority 2020, dated 2025).

For test [1], the target named is T1, POLRMT (Homo sapiens, UniProt O00411). Nature of the test: Single nucleotide incorporation by human mitochondrial RNA polymerase (POLRMT). Format: biochemical. The note with it: nucleotide triphosphate. As for the experimental part: A mixture of MTCN buffer (50 mM MES, 25 mM Tris-HCl, 25 mM CAPS, and 50 mM NaCl, pH 7.5), 200 nM 5′^32 P-R12/D18, 10 mM MgCl2, 1 mM DTT, and 376 nM POLRMT was preincubated at 30° C. for 1 min. The reaction was started by addition of 500 μM (final) natural NTP or NTP analogs. At selected time points, the reaction mixture was removed and quenched with gel loading buffer containing 100 mM EDTA, 80% formamide, and bromophenol blue, and heated at 65° C. for 5 min. The samples were run on a 20% polyacrylamide gel (8 M urea), and the product formation was quantified using Typhoon Trio Imager and Image Quant TL Software (GE Healthcare, Piscataway, NJ). The rate of single nucleotide incorporation by mt RNA pol was calculated by fitting the product formation using the single exponential equation: [1R13]=A(1−e^−kt), where [1R13] represents the amount (in nM) of the elongated product formed, t represents the reaction time, k represents the observed rate, and A represents the amplitude of the exponential.
T1 sequence (O00411 42-1230): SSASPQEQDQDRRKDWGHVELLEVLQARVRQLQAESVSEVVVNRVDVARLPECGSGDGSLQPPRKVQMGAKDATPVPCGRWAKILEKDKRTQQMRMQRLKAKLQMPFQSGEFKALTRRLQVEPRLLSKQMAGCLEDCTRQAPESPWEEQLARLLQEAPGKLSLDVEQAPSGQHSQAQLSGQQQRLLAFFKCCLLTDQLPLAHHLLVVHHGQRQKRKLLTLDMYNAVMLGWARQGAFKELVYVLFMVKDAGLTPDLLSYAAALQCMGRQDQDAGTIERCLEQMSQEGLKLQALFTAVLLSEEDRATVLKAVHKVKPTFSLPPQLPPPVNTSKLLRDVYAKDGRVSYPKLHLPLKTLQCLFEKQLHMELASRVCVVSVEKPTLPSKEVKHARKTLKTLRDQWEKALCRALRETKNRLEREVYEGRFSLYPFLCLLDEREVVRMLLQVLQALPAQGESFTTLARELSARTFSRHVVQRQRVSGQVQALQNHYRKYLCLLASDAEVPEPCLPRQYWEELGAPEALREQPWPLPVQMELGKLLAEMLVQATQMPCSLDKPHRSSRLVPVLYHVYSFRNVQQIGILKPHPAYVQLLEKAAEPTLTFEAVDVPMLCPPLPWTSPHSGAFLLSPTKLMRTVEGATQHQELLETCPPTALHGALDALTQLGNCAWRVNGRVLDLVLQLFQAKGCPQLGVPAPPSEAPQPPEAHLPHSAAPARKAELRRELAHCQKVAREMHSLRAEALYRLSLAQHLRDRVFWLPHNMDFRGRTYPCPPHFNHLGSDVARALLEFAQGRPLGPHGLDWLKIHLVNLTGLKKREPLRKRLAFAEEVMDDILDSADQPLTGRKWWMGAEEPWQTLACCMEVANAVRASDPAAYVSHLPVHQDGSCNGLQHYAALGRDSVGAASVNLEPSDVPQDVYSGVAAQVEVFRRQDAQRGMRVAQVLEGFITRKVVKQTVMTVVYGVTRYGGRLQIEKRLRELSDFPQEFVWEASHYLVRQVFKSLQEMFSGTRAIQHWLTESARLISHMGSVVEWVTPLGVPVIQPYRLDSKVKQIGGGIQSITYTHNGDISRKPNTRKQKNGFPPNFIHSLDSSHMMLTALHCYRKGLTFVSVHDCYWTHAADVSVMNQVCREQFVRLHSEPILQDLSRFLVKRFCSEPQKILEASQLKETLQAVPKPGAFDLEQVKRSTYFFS

Another test addresses DENV2 NS5 (Dengue virus type 2, UniProt P14340). The test is described as follows: DENV Pol IC50 (DENV2-NS5 polymerase assay). The settings on record: nucleotide triphosphate. Format: biochemical. As for the experimental part: A 244 nucleotide secondary structureless heteropolymeric RNA (sshRNA) with sequence 5′-(UCAG)20(UCCAAG)14(UCAG)20-3′ (SEQ ID NO: 1) is used as the template with 5′-CUG-3′ primer in the DENV2-NS5 polymerase assay. Six two-fold dilutions of compounds starting from 200 nM and no inhibitor control are plated in 96-well plates. 100 nM DENV2 NS5 is preincubated for 5 minutes at room temperature in a reaction mixture containing 40 mM Tris-HCl (pH 7.5), 10 mM NaCl, 3 mM DTT, 0.2 unit/μL RNasin Plus RNase Inhibitor, 200 ng/μL sshRNA, 20 μM CUG and 2 mM MgCl2. Enzyme mix is added to compound dilutions and reactions initiated by the addition of a mixture containing 20 μM of three natural NTP plus 2 μM of analog:base matched competing natural NTP containing 1:100 α-33P-NTP. After 90 minutes at 30° C., 5 μL of the reaction mixtures are spotted on DE81 anion exchange paper. Filter papers are washed three times with Na2HPO4 (125 mM, pH 9) for 5 minutes, rinsed with water and ethanol, then air-dried and exposed to phosphorimager. Synthesized RNA is quantified using Typhoon Trio Imager and Image Quant TL Software and reaction rates are calculated by linear regression using GraphPad Prism 5.0. IC50 values are calculated in Prism by non-linear regression analysis using the dose-response (variable slope) equation (four-parameter logistic equation): Y=Bottom+(Top-Bottom)/(1+10^((Log IC50−X)*HillSlope)).

For test [2], the target named is T1, POLRMT. The test is described as follows: Inhibition of human mitochondrial RNA polymerase (POLRMT). The format is biochemical. The note with it: nucleotide triphosphate. As for the experimental part:
All reaction mixtures contained 50 mM Tris-HCl buffer (pH 8.0), 0.2 mg/ml BSA, 2 mM DTT, 0.05 mg/ml activated fish sperm DNA, 10 mM MgCl2, 1.3 μCi [α-^33P]dTTP (3,000 Ci/mmol), and 2 μMeach of dATP, dGTP, and TTP. The optimal enzyme concentrations were chosen to be in the linear range of enzyme concentration ([E]) versus activity, and the reaction time was selected to ensure that 10% of the substrate was consumed. All reactions were run at 37° C. […] The reactions were heated to 32° C. and initiated by adding 2.5 μM each of the four natural NTPs and 1.5 μCi of [^33P]GTP. After incubation for 30 min at 32° C., the reactions were spotted on DE81 paper before being processed for quantification.

The target in another test is T2, RSV RNP complexes (Human respiratory syncytial virus A, UniProt P28887).
T2 construct: The supernatant (S3) fraction, containing the enriched RSV RNP complexes, was collected; endogenous in cells; host or cells: HEp-2 cells infected with RSV A2; detergent-extracted S3 fraction
T2 sequence (P03421 whole entry): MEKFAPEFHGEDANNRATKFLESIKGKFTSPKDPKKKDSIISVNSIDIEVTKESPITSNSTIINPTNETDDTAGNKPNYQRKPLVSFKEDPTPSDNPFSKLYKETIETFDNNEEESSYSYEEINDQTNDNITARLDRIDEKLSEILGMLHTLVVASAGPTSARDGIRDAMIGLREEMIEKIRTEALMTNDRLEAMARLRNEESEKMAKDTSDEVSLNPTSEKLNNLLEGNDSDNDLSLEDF
T2 sequence (P28887 whole entry): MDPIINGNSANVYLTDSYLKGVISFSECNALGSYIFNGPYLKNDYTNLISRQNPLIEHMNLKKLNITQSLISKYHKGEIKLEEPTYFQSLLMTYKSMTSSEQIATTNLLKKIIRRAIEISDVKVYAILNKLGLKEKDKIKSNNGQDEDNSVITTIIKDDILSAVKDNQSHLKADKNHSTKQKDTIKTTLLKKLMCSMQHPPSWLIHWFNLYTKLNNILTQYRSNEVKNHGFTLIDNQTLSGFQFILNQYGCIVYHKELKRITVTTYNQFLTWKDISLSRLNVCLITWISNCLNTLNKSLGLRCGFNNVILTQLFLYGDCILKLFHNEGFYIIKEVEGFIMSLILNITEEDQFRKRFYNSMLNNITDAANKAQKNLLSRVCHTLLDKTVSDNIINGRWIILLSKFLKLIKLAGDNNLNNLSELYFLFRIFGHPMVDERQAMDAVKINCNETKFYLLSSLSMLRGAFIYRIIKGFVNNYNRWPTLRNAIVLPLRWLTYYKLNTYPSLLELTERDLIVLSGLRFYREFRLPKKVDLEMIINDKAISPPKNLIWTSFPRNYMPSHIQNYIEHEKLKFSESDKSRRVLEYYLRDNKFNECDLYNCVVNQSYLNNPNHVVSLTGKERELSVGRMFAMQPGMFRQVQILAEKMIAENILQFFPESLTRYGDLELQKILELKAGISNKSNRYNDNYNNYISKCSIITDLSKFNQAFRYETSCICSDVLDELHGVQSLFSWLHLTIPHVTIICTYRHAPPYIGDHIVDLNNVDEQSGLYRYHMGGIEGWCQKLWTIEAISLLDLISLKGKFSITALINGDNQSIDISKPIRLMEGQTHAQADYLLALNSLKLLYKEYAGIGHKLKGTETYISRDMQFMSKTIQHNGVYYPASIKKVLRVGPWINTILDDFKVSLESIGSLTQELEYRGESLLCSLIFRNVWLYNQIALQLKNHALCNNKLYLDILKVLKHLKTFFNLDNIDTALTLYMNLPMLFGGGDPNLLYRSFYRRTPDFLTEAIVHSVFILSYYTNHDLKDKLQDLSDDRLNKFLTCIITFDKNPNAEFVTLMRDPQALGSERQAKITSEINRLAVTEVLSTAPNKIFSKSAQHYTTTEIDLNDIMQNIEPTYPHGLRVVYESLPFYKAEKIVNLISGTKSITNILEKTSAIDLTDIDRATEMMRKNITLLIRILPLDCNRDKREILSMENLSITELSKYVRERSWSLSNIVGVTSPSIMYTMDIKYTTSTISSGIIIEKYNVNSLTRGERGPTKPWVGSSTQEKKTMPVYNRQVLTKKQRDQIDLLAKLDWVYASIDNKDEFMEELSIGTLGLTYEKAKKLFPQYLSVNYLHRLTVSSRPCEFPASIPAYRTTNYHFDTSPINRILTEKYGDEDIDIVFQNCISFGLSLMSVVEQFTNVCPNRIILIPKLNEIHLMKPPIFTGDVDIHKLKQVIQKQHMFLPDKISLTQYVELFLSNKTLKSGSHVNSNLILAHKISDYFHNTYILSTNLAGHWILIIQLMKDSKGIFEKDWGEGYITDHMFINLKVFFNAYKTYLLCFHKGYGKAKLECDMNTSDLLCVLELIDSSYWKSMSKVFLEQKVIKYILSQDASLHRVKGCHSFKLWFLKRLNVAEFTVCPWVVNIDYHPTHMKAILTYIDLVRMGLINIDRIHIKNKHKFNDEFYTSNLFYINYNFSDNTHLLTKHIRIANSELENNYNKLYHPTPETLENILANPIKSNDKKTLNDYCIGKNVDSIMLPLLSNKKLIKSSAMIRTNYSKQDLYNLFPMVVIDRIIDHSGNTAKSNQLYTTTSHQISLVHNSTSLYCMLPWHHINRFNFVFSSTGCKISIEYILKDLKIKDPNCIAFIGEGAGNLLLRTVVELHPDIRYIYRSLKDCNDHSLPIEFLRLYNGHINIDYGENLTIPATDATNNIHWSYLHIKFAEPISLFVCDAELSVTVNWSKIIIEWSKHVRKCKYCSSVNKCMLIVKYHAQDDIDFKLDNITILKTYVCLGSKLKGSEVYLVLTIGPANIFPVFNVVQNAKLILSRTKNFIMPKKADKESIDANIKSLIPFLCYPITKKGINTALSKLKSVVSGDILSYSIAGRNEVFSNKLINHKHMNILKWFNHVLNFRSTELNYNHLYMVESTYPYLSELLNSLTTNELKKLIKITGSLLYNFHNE
The test is described as follows: RSV RNP assay (transcription). The format is biochemical, RSV A2. As for the experimental part: RSV ribonucleoprotein (RNP) complexes were prepared from a method modified from Mason et al. (1). HEp-2 cells were plated at a density of 7.1×10^4 cells/cm^2 in MEM+10% fetal bovine serum (FBS) and allowed to attach overnight at 37° C. (5% CO2). Following attachment, the cells were infected with RSV A2 (MOI=5) in 35 mL MEM+2% FBS. At 20 hours post-infection, the media was replaced with MEM+2% FBS supplemented with 2 μg/mL actinomycin D and returned to 37° C. for one hour. The cells were then washed once with PBS and treated with 35 mL of PBS+250 μg/mL lyso-lecithin for one minute, after which all liquid was aspirated. […] The supernatant (S3) fraction, containing the enriched RSV RNP complexes, was collected and the protein concentration determined by UV absorbance at 280 nm. […]
Transcription reactions contained 25 μg of crude RSV RNP complexes in 30 μL of reaction buffer [50 mM TRIS-acetate (pH 8.0), 120 mM potassium acetate, 5% glycerol, 4.5 mM MgCl2, 3 mM DTT, 2 mM ethyleneglycol-bis(2-aminoethylether)-tetraacetic acid (EGTA), 50 μg/mL BSA, 2.5 U RNasin (Promega), ATP, GTP, UTP, CTP and 1.5 uCi [α-32P] […] The radiolabled nucleotide used in the transcription assay was selected to match the nucleotide analog being evaluated for inhibition of RSV RNP transcription. […]

Where only a bound is given, the exact number is not on record here.

By IC50 is commonly meant the concentration needed to halve the response being measured.

On to `[N-]=[N+]=N[C@]1(COP(=O)(O)OP(=O)(O)OP(=O)(O)O)O[C@@H](c2ccc3c(N)ncnn23)[C@H](O)[C@@H]1O` [—N3], for which the “POLRMT SNI %” value on POLRMT [1] was 132%. Further, the IC50 on DENV2 NS5 came out at 140 nM; against POLRMT [2], 900 nM.

Consider `Nc1ncnn2c([C@@H]3O[C@](CCl)(COP(=O)(O)OP(=O)(O)OP(=O)(O)O)[C@@H](O)[C@H]3O)ccc12` [—CH2Cl], for which, at POLRMT [1], the “POLRMT SNI %” value came to 0.11%. The IC50 at RSV RNP complexes worked out at 1100 nM; against DENV2 NS5, 7100 nM.

Turning to `N#C[C@]1(COP(=O)(O)OP(=O)(O)OP(=O)(O)O)O[C@@H](c2ccc3c(N)ncnn23)[C@H](O)[C@@H]1O` [—CN], on POLRMT [1], the “POLRMT SNI %” value was 0.6%. In addition, the figures for the IC50 against RSV RNP complexes, against DENV2 NS5 and against POLRMT [2] were 44 nM, 830 nM and greater than 200000 nM, respectively.
